Assay results reported in US20230019236A1, “PROTEIN TYROSINE PHOSPHATASE INHIBITORS AND METHODS OF USE THEREOF” (Calico Life Sciences LLC, priority 2019, published 2023).

molecular target: T1, His tagged full-length PTP1B protein (Homo sapiens, UniProt P18031); test: Mobility Shift Assay (MSA) used to determine potency of PTP1B inhibitors; assay type: biochemical; details: Table 2
T1 construct: made in house
T1 sequence (P18031 with tags, fused parts or gaps): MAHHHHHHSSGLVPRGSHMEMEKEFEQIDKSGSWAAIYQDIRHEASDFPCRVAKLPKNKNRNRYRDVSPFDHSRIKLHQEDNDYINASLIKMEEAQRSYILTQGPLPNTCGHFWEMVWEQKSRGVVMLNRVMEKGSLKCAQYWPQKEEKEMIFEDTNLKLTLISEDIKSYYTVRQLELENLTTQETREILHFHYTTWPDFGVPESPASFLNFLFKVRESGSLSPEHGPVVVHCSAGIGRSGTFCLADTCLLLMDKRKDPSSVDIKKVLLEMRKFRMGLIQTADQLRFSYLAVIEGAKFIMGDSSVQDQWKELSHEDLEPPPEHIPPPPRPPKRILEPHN
Procedure: The enzymatic assay used to determine activity is a mobility shift assay using a LabChip EZ Reader by Caliper Life Sciences. The enzymatic reaction was carried out in assay buffer (50 mM HEPES pH 7.5, 1 mM EGTA, 10 mM EDTA, 0.01% Tween® 20, and 2 mM DTT). […] The enzyme (at 0.5 nM) was incubated with compound for 10 minutes at room temperature. […] The % inhibition was then used to calculate the IC50 values.

IC50, > 0.1 µM:
O=C1CN(c2c(O)cc3ccc(NCCc4ccccc4)cc3c2F)S(=O)(=O)N1 [Compound 164, 5-{1-fluoro-3-hydroxy-7-[(2-phenylethyl)amino]naphthalen-2-yl}-1λ^6,2,5-thiadiazolidine-1,1,3-trione]
CNc1ccc2cc(O)c(N3CC(=O)NS3(=O)=O)c(F)c2c1 [Compound 107, 5-[1-fluoro-3-hydroxy-7-(methylamino)naphthalen-2-yl]-1λ^6,2,5-thiadiazolidine-1,1,3-trione]
CC1(COc2ccc3cc(O)c(N4CC(=O)NS4(=O)=O)c(F)c3c2)COC1 [Compound 230, 5-{1-fluoro-3-hydroxy-7-[(3-methyloxetan-3-yl)methoxy]naphthalen-2-yl}-1λ^6,2,5-thiadiazolidine-1,1,3-trione]
O=C1CN(c2c(O)cc3ccc(NCCCC(F)(F)F)cc3c2F)S(=O)(=O)N1 [Compound 166, 5-{1-fluoro-3-hydroxy-7-[(4,4,4-trifluorobutyl)amino]naphthalen-2-yl}-1λ^6,2,5-thiadiazolidine-1,1,3-trione]
CC(C)OCCNc1ccc2cc(O)c(N3CC(=O)NS3(=O)=O)c(F)c2c1 [Compound 172, 5-[1-fluoro-3-hydroxy-7-({2-[(propan-2-yl)oxy]ethyl}amino)naphthalen-2-yl]-1λ^6,2,5-thiadiazolidine-1,1,3-trione]

IC50, 0.01 to 0.1 µM:
O=C1CN(c2c(O)cc3ccc(OCCN4CCOCC4)cc3c2F)S(=O)(=O)N1 [Compound 100, 5-{1-fluoro-3-hydroxy-7-[2-(morpholin-4-yl)ethoxy]naphthalen-2-yl}-1λ^6,2,5-thiadiazolidine-1,1,3-trione]
O=C1CN(c2c(O)cc3ccc(OC4CN(S(=O)(=O)C5CC5)C4)cc3c2F)S(=O)(=O)N1 [Compound 178, 5-(7-{[1-(cyclopropanesulfonyl)azetidin-3-yl]oxy}-1-fluoro-3-hydroxynaphthalen-2-yl)-1λ^6,2,5-thiadiazolidine-1,1,3-trione]
CCNCCOc1ccc2cc(O)c(N3CC(=O)NS3(=O)=O)c(F)c2c1 [Compound 144, 5-{7-[2-(ethylamino)ethoxy]-1-fluoro-3-hydroxynaphthalen-2-yl}-1λ^6,2,5-thiadiazolidine-1,1,3-trione]
CC(C)(C)CCNc1ccc2cc(O)c(N3CC(=O)NS3(=O)=O)c(F)c2c1 [Compound 116, 5-{7-[(3,3-dimethylbutyl)amino]-1-fluoro-3-hydroxynaphthalen-2-yl}-1λ^6,2,5-thiadiazolidine-1,1,3-trione]
O=C1CN(c2c(O)cc3ccc(CCC4CC4)cc3c2F)S(=O)(=O)N1 [Compound 209, 5-[7-(2-cyclopropylethyl)-1-fluoro-3-hydroxynaphthalen-2-yl]-1λ^6,2,5-thiadiazolidine-1,1,3-trione]
CC1(CCOc2ccc3cc(O)c(N4CC(=O)NS4(=O)=O)c(F)c3c2)CC1 [Compound 193, 5-{1-fluoro-3-hydroxy-7-[2-(1-methylcyclopropyl)ethoxy]naphthalen-2-yl}-1λ^6,2,5-thiadiazolidine-1,1,3-trione]
O=C1CN(c2c(O)cc3ccc(C4=CCOC4)cc3c2F)S(=O)(=O)N1 [Compound 263, 5-[7-(2,5-dihydrofuran-3-yl)-1-fluoro-3-hydroxynaphthalen-2-yl]-1λ^6,2,5-thiadiazolidine-1,1,3-trione]

IC50, 0.001 to 0.01 µM:
O=C1CN(c2c(O)c(Br)c3ccc(-c4ccn(S(=O)(=O)C5CC5)c4)cc3c2F)S(=O)(=O)N1 [Compound 231B, 5-{4-bromo-7-[1-(cyclopropanesulfonyl)-1H-pyrrol-3-yl]-1-fluoro-3-hydroxynaphthalen-2-yl}-1λ^6,2,5-thiadiazolidine-1,1,3-trione]
CC(C)(C)OCCOc1ccc2cc(O)c(N3CC(=O)NS3(=O)=O)c(F)c2c1 [Compound 217, 5-[7-(2-tert-butoxyethoxy)-1-fluoro-3-hydroxynaphthalen-2-yl]-1λ^6,2,5-thiadiazolidine-1,1,3-trione]
O=C1CN(c2c(O)cc3ccc(C4=CCN(S(=O)(=O)CCC(F)(F)F)C4)cc3c2F)S(=O)(=O)N1 [Compound 287, 5-{1-fluoro-3-hydroxy-7-[1-(3,3,3-trifluoropropane-1-sulfonyl)-2,5-dihydro-1H-pyrrol-3-yl]naphthalen-2-yl}-1λ^6,2,5-thiadiazolidine-1,1,3-trione]
CCC(=O)CCOc1ccc2cc(O)c(N3CC(=O)NS3(=O)=O)c(F)c2c1 [Compound 155, 5-{1-fluoro-3-hydroxy-7-[(3-oxopentyl)oxy]naphthalen-2-yl}-1λ^6,2,5-thiadiazolidine-1,1,3-trione]
O=C1CN(c2c(O)cc3ccc(-c4cnn(S(=O)(=O)C5CC5)c4)cc3c2F)S(=O)(=O)N1 [Compound 303, 5-{7-[1-(cyclopropanesulfonyl)-1H-pyrazol-4-yl]-1-fluoro-3-hydroxynaphthalen-2-yl}-1λ^6,2,5-thiadiazolidine-1,1,3-trione]
CCP(=O)(CC)CCCOc1ccc2cc(O)c(N3CC(=O)NS3(=O)=O)c(F)c2c1 [Compound 146, 5-{7-[3-(diethylphosphoryl)propoxy]-1-fluoro-3-hydroxynaphthalen-2-yl}-1λ^6,2,5-thiadiazolidine-1,1,3-trione]
O=C1CN(c2c(O)cc3ccc(NCCC4CC4)cc3c2F)S(=O)(=O)N1 [Compound 224, 5-{7-[(2-cyclopropylethyl)amino]-1-fluoro-3-hydroxynaphthalen-2-yl}-1λ^6,2,5-thiadiazolidine-1,1,3-trione]
COCCOc1ccc2cc(O)c(N3CC(=O)NS3(=O)=O)c(F)c2c1 [Compound 119, 5-[1-fluoro-3-hydroxy-7-(2-methoxyethoxy)naphthalen-2-yl]-1λ^6,2,5-thiadiazolidine-1,1,3-trione]

IC50, < 0.001 µM:
CC(C)(C#N)CCOc1ccc2cc(O)c(N3CC(=O)NS3(=O)=O)c(F)c2c1 [Compound 120, 4-{[8-fluoro-6-hydroxy-7-(1,1,4-trioxo-1λ^6,2,5-thiadiazolidin-2-yl)naphthalen-2-yl]oxy}-2,2-dimethylbutanenitrile]
O=C1CN(c2c(O)cc3ccc(-c4cnn(CC5CC5)c4)cc3c2F)S(=O)(=O)N1 [Compound 132, 5-{7-[1-(cyclopropylmethyl)-1H-pyrazol-4-yl]-1-fluoro-3-hydroxynaphthalen-2-yl}-1λ^6,2,5-thiadiazolidine-1,1,3-trione]
CC(C)CS(=O)(=O)N1CC=C(c2ccc3cc(O)c(N4CC(=O)NS4(=O)=O)c(F)c3c2)C1 [Compound 300, 5-{1-fluoro-3-hydroxy-7-[1-(2-methylpropane-1-sulfonyl)-2,5-dihydro-1H-pyrrol-3-yl]naphthalen-2-yl}-1λ^6,2,5-thiadiazolidine-1,1,3-trione]
O=C1CN(c2c(O)cc3ccc(C4=CCN(S(=O)(=O)C5CCC5)C4)cc3c2F)S(=O)(=O)N1 [Compound 316, 5-{7-[1-(cyclobutanesulfonyl)-2,5-dihydro-1H-pyrrol-3-yl]-1-fluoro-3-hydroxynaphthalen-2-yl}-1λ^6,2,5-thiadiazolidine-1,1,3-trione]
O=C1CN(c2c(O)cc3ccc(C4=CCN(S(=O)(=O)c5ccccc5)C4)cc3c2F)S(=O)(=O)N1 [Compound 315, 5-{7-[1-(benzenesulfonyl)-2,5-dihydro-1H-pyrrol-3-yl]-1-fluoro-3-hydroxynaphthalen-2-yl}-1λ^6,2,5-thiadiazolidine-1,1,3-trione]
